Several values for one entry are separate records, joined by “and”; a condition that tells them apart may be missing. Equal entries are not always repeated. Where two headings read alike, the source gives them in different places. * marks the point of attachment. Cbz = O=C(OCc1ccccc1)*; CH2F = FC*
Tests used:
Format in all cases: cell-based, human
[1] = system: HaCaT cells; test: Annexin V/propidium iodide staining, flow cytometry; conditions: 40 μM pretreatment 1 h, then DHNA 24 h
Description: After DHNA treatment, HaCaT cells were resuspended in annexin V binding buffer (10 mM HEPES, 140 mM NaCl, and 2.5 mM CaCl2, pH 7.4) and then incubated with FITC-conjugated annexin V (Biosource International, Inc., USA), and 0.5 μg/mL propidium iodide (PI) for 15 min at room temperature in the dark. Cells were analyzed on a FACSCanto flow cytometer (BD Biosciences, San Jose, CA, USA) immediately and then analyzed using WinMDI 2.9 (developed by Dr. J. Trotter, Scripps Institute, La Jolla, CA, USA). The total number of early (FITC+/PI−) and late (FITC+/PI+) apoptotic cells was assessed. In another experiment, HaCaT cells were preincubated with 40 μM pan-caspase inhibitor Z-VAD-FMK (BD Pharmingen, San Diego, CA, USA) for 1 h before exposure to DHNA.

[2] = system: NCTC 2544 cells; test: Proliferation assay (sulphorhodamine B) on NCTC 2544; conditions: Homo sapiens, read-out: IC50 on growth
From the text: (§1) The spontaneously immortalized human epidermal keratinocyte HaCaT cells were purchased from China Centre for Type Culture Collection, Wuhan, China. The human foreskin fibroblast Hs-68 cells were purchased from the American Type Culture Collection (Manassas, VA, USA). The human undifferentiated keratinocyte NCTC 2544 cells were provided by Interlab Cell Line Collection (Genoa, Italy) and the immortalized human epidermal melanocyte PIG1 cells were a gift from Dr Caroline Le Poole (Loyola University Chicago, Maywood, IL, USA). HaCaT and Hs-68 cells were maintained in DMEM, NCTC 2544 in RPMI 1640 and PIG1 cells in Medium 254 with Human Melanocyte Growth Supplement-2, respectively. All cells were cultured in complete medium containing 10% FBS, 100 μg/mL of streptomycin, and 100 U/mL of penicillin (Gibco Laboratories) at 37°C in a humidified atmosphere of 5% CO2. Cell culture experiments were carried out at 60–80% confluent.
(§2) The ethyl acetate extract (EA) of Rubia cordifolia L. was isolated as described. 1,4-dihydroxy-2-naphthoic acid (98%), dithranol (≥90%), and EA were dissolved in DMSO as stock. All cells were seeded and treated with various concentrations of DHNA, dithranol or EA. After treatment, cells were fixed with cold 50% trichloroacetic acid and incubated 1 h at 4°C. Cell was then washed with deionized water, air-dried, and stained with 0.4% (w/v) sulphorhodamine B for 30 min at room temperature. Unincorporated dye was removed with 1% acetic acid wash and the cell was again air-dried. Incorporated dye was then solubilized in 10 mM Tris base and absorbance was measured at 565/690 nm using a Sunrise microplate spectrophotometer (Tecan, Switzerland). IC50 were determined using GraphPad Prism 5.0 (GraphPad Software, San Diego, CA, USA).

[3] = system: IL-1α release from NCTC 2544 cells; test: IL-1α release assay (ELISA)
Description: NCTC 2544 cells were seeded and treated with various concentrations of DHNA or dithranol for 72 h. After incubation, the microplate was centrifuged and conditioned medium was collected to determine the extracellular IL-1α (IL-1α release) using an IL-1α ELISA kit (Diaclone Research, France). All other steps were then according to the manufacturer's protocol. Results were expressed in pg/mL.

[4] = system: HaCaT cells; test: Proliferation assay (sulphorhodamine B) on HaCaT; conditions: Homo sapiens, read-out: IC50 on growth
From the text: as §1, §2

In the case of “Cbz-Val-Ala-Asp-CH2F [reference compound]”, the “effect of pan-caspase inhibitor on DHNA-induced apoptosis” value [1] is reported as “partially blocked”.

For `O=C1c2c(O)cccc2Cc2cccc(O)c21` [Dithranol, dithranol, reference compound], the IC50 ([2]; NCTC 2544, incubation 48 h) was 6.21 µM and 1.41 µg/mL, the IC50 ([2]; NCTC 2544, incubation 72 h) was 3.81 µM and 0.86 µg/mL and the “IL-1α release at concentrations below IC50 on NCTC 2544” value ([3]; 2 to 3 μM or 0.45 to 0.68 μg/mL, 72 h) was “readily induced the release of this cytokine”. The “IL-1α release versus vehicle control” value ([3]; 2 to 8 μM (0.45 to 1.81 μg/mL), 72 h) was “induced significant release of this cytokine at all concentrations tested”, the “concentration at which IL-1α release is significantly induced” value ([3]; NCTC 2544, 72 h, versus vehicle control) was 2 μM and 0.45 μg/mL and the IC50 ([4]; incubation 48 h) was 24.8 µM and 5.6 µg/mL. The IC50 ([4]; incubation 72 h) was 9.39 µM and 2.12 µg/mL.

Reference: PMC3638593, “1,4-dihydroxy-2-naphthoic Acid Induces Apoptosis in Human Keratinocyte: Potential Application for Psoriasis Treatment” (Evidence-based Complementary and Alternative Medicine : eCAM, 2013)
